Converted amounts (≈) assume the structure as drawn.

The conditions of this data set: buffer; pH 7.4; 200.0 µM.
Usually solubility (kinetic) stands for the concentration staying in solution when a stock, usually in DMSO, is diluted into the medium. For `CCN(/C=N/S(=O)(=O)c1ccc(Cl)cc1)CC`, the kinetic solubility was greater than 41.2 µg/mL.

`CC1CC(=O)Nc2ccccc2N1C(=O)Nc1ccc(F)cc1F` (configuration not stated) gave a solubility (kinetic) greater than 49.7 µg/mL.

For `N=C1SC(CC(=O)Nc2ccccc2[N+](=O)[O-])C(=O)N1c1ccccc1` (configuration not stated), the kinetic solubility is 0.2 µg/mL (≈ 0.54 µM).

Take `COc1ccccc1N(Cc1ccccc1)S(=O)(=O)c1cccc(C(=O)N2CCCCC2)c1`: the kinetic solubility worked out at 11.3 µg/mL (≈ 24.3 µM).

On to `O=C(NCC1CCCO1)c1ccc(F)c2ccccc12` (configuration not stated), for which the solubility (kinetic) is greater than 41 µg/mL.

Compound `Cc1ccc(NC(=O)O/N=C/c2ccc(F)cc2)cc1` registered a solubility (kinetic) of 23.1 µg/mL (≈ 84.8 µM).

In turn, `COC(=O)c1ccc(COC(=O)CNC(=O)c2cccs2)cc1` displayed a solubility (kinetic) greater than 50 µg/mL.

Compound `O=C(Nc1ccc([N+](=O)[O-])cc1)c1ccccc1` registered a kinetic solubility of 2.2 µg/mL (≈ 9.08 µM).

For `CN1CCCC(OC(=O)c2ccccc2Br)C1.Cl` (configuration not stated), the solubility (kinetic) was greater than 50.2 µg/mL.

Turning to `CCn1c(SCc2cccc(F)c2)nc2c(c1=O)SCC2`, the solubility (kinetic) came to 11.2 µg/mL (≈ 34.7 µM).

As to `CCOc1cc([N+](=O)[O-])c2nc(N)sc2c1`, the kinetic solubility came to 4.3 µg/mL (≈ 18 µM).

The compound `Cc1ccc(C)c(S(=O)(=O)c2c(C)cc(C)nc2Cl)c1` displayed a kinetic solubility of 27 µg/mL (≈ 87.1 µM).

The compound `O=C1COc2ccc(C(=O)COC(=O)c3ccccc3Cl)cc2N1` registered a solubility (kinetic) of 4.5 µg/mL (≈ 13 µM).

In the case of `COc1ccc(N2CCN(C(CNS(=O)(=O)c3ccc(C)cc3)c3ccccc3)CC2)cc1` (configuration not stated), the solubility (kinetic) came out at 1.4 µg/mL (≈ 3.01 µM).

For the compound `COc1ccc(C(=O)NCCc2nc3cc([N+](=O)[O-])ccc3n2C)cc1`, the kinetic solubility was found to be 2.5 µg/mL (≈ 7.05 µM).

For the compound `S=C(NCc1ccccc1)Nc1nccs1`, the kinetic solubility is 3 µg/mL (≈ 12 µM).

In turn, `CCCc1c(C)[nH]c2nc3ccccc3n2c1=O` displayed a kinetic solubility of 3.6 µg/mL (≈ 14.9 µM).

In the case of `O=C(c1cccc(Oc2ccccc2)c1)N1CCOCC1`, the kinetic solubility was greater than 42.5 µg/mL.

Consider `O=C(O)c1ccc[n+](Cc2ccc([N+](=O)[O-])cc2)c1.[Br-]`, for which the kinetic solubility is greater than 50.9 µg/mL.

Take `COc1ccc(NC(=O)C2CCCO2)c(OC)c1` (configuration not stated): the kinetic solubility is 33.9 µg/mL (≈ 135 µM).

`O=S(=O)(NC1CCCCC1)c1cccc2nsnc12`: the solubility (kinetic) was 31.6 µg/mL (≈ 106 µM).

In turn, `CC1(C)CC(/C=C/c2ccccc2)=Nc2ccccc2N1` yielded a kinetic solubility of 27.2 µg/mL (≈ 98.4 µM).

Turning to `NC(=O)COC(=O)c1sc2ccccc2c1Cl`, the solubility (kinetic) stood at 12.4 µg/mL (≈ 46 µM).

In the case of `COn1c(=O)c(-c2ccc(C)cc2)[n+]([O-])c2ccccc21`, the kinetic solubility was greater than 42.3 µg/mL.

`O=C(O)CCCC(=O)Nc1nncs1` gave a kinetic solubility greater than 32.3 µg/mL.

Compound `CC1(NC(=O)Cc2c(F)cccc2Cl)CCS(=O)(=O)C1` (configuration not stated) returned a kinetic solubility greater than 48 µg/mL.

`Cn1c(SCC(=O)NC2CCCCC2)nnc1-c1ccccc1F` registered a solubility (kinetic) greater than 52.3 µg/mL.

Turning to `CCOC(=O)Cc1csc(NC(=O)Cc2ccc(Br)cc2)n1`, the kinetic solubility stood at 5.9 µg/mL (≈ 15.4 µM).

In turn, `Nc1ccc(C(=O)O)c(O)c1` yielded a kinetic solubility greater than 23 µg/mL.

`O=C1CN(C(=O)CNCc2ccccc2)c2ccccc2N1` had a kinetic solubility of 33.9 µg/mL (≈ 115 µM).

As to `CN(C)C(=O)Oc1cccc(NC(=O)c2ccccc2C(F)(F)F)c1`, the solubility (kinetic) stood at 37.9 µg/mL (≈ 108 µM).

`COc1ccc(C(=O)Nc2nccs2)cc1` had a kinetic solubility of 8.1 µg/mL (≈ 34.6 µM).

Regarding `O=C(Nc1ccc(Cl)cc1)c1cc(-c2cccs2)on1`, the kinetic solubility was less than 0.3 µg/mL.

Turning to `CCOc1ccc(CNC(=S)Nc2ccccc2)cc1Cl`, the solubility (kinetic) worked out at 1.6 µg/mL (≈ 4.99 µM).

In turn, `CC(NC(=O)C(=O)Nc1nccs1)c1ccccc1` (configuration not stated) gave a kinetic solubility of 35.4 µg/mL (≈ 129 µM).

The compound `CC(=O)Nc1ccc2nc(NC(=O)CCc3ccccc3)sc2c1` returned a kinetic solubility of 0.7 µg/mL (≈ 2.06 µM).

For `Cn1cc(S(=O)(=O)N2CCNCC2)cc1C(N)=O`, the kinetic solubility is greater than 40.8 µg/mL.

For the compound `CN(C(=S)NC(=O)C12CC3CC(CC(C3)C1)C2)c1ccc(O)cc1`, the solubility (kinetic) was 45.8 µg/mL (≈ 133 µM).

For `CC(NC(=O)/C(C#N)=C/c1ccc(C(=O)O)cc1)c1ccccc1` (configuration not stated), the kinetic solubility was greater than 48.1 µg/mL.

`CC(C)CCN1CCC(N)=NC1=O` gave a kinetic solubility of 26.8 µg/mL (≈ 146 µM).

In turn, `CCOc1ccc(S(=O)(=O)/N=C(/c2ccccc2)N(C)C)cc1` displayed a kinetic solubility greater than 49.9 µg/mL.

Consider `CC(C)Oc1cc(C(=O)NC2CCCCC2)c2ccccc2n1`, for which the solubility (kinetic) turned out to be 1.4 µg/mL (≈ 4.48 µM).

Consider `COc1cc(Cl)c(C)cc1NC(=O)CC1CCCC1`, for which the kinetic solubility turned out to be 2 µg/mL (≈ 7.1 µM).

With `OCCOCCN1CCN(C2=Nc3ccccc3Sc3ccccc32)CC1`, the kinetic solubility is 49.4 µg/mL (≈ 129 µM).

`CCCCNC(=S)N1CCN(C)CC1.O=C(O)C(=O)O` returned a solubility (kinetic) greater than 45.8 µg/mL.

Consider `C/C=C/C=C/C(=O)OC(C)C(=O)Nc1cc([N+](=O)[O-])ccc1OC` (configuration not stated), for which the kinetic solubility came to 18 µg/mL (≈ 53.8 µM).

In turn, `COC1c2ccccc2C(=O)N1CCc1ccc(Cl)cc1` (configuration not stated) registered a kinetic solubility of 41.7 µg/mL (≈ 138 µM).

With `Cc1cc(S(=O)(=O)NCc2ccco2)c(C)cc1Cl`, the kinetic solubility was greater than 45 µg/mL.

`CN(Cc1cccc(Cl)c1Cl)C(=O)CCNC(=O)c1ccco1`: the solubility (kinetic) was greater than 53.3 µg/mL.

Turning to `N#CCCN(C(=O)CN1c2cccc3cccc(c23)S1(=O)=O)c1ccccc1`, the kinetic solubility turned out to be 15 µg/mL (≈ 38.3 µM).

`Cc1cc(C)nc(SCC(=O)NC(=O)c2ccccc2O)n1` had a kinetic solubility greater than 47.6 µg/mL.

Compound `CC(=O)Nc1ccc(-c2cc(C(=O)O)c3ccc(C)cc3n2)cc1` displayed a solubility (kinetic) greater than 48.1 µg/mL.

The record behind these values is PubChem BioAssay AID1996.
